Calls of active or inactive are those of the source. How the calls were made is not given here.
The molecules below were run on M. tuberculosis BioA-TetON overexpression strain, growth IC90 (assay: PubChem AID 743351).
With `COc1ccc(NC(=O)N2CC[C@@H]3[C@@H](CO)N(C)c4ccc(-c5ccc(F)cc5)cc4[C@@H]32)cc1` the IC90 was > 50 µM (inactive).
For `CCC(=O)N1CC[C@@H]2[C@@H](CO)N(C)c3ccc(-c4ccc(F)cc4)cc3[C@@H]21`, the IC90 was > 50 µM (inactive).
In the case of `CN1c2ccc(-c3ccc(F)cc3)cc2[C@H]2[C@H](CCN2C(=O)Cc2cccnc2)[C@H]1CO`, the IC90 is reported as > 50 µM (inactive).
In the case of `CN1c2ccc(-c3cccc(F)c3)cc2[C@H]2[C@H](CCN2C(=O)Cc2cccnc2)[C@H]1CO`, the IC90 is reported as > 50 µM (inactive).
In the case of `CN(C)C(=O)c1ccc(N2CCN(C(=O)c3ccc4c(c3)OCO4)CC2)cc1`, the IC90 is reported as > 50 µM (inactive).
In the case of `COc1ccccc1NC(=O)N1CC[C@@H]2[C@@H](CO)N(C)c3ccc(-c4cccc(F)c4)cc3[C@@H]21`, the IC90 is reported as > 50 µM (inactive).
With `CCCCCCCC(=O)N1CC[C@@H]2[C@@H](CO)N(C)c3ccc(-c4cccc(F)c4)cc3[C@@H]21` the IC90 was > 50 µM (inactive).
For `CC(C)NC(=O)N1CC[C@@H]2[C@@H](CO)N(C)c3ccc(-c4cccc(F)c4)cc3[C@@H]21`, the IC90 was > 50 µM (inactive).
With `COc1ccccc1C(=O)N1CCN(c2ccc(C(C)=O)cc2)CC1` the IC90 was > 50 µM (inactive).
`CN1c2ccc(-c3ccc(F)cc3)cc2[C@H]2[C@H](CCN2C(=O)Cc2ccccn2)[C@H]1CO` was tested, and the IC90 was > 50 µM (inactive).
For `CN1c2ccc(-c3cccc(F)c3)cc2[C@@H]2[C@@H](CCN2C(=O)c2ccc3c(c2)OCO3)[C@@H]1CO`, the IC90 was > 50 µM (inactive).
In the case of `CN1c2ccc(-c3cccc(F)c3)cc2[C@H]2[C@H](CCN2C(=O)Nc2ccccc2F)[C@H]1CO`, the IC90 is reported as > 50 µM (inactive).
In the case of `COc1ccc(NC(=O)N2CC[C@@H]3[C@@H](CO)N(C)c4ccc(-c5cccc(F)c5)cc4[C@@H]32)cc1`, the IC90 is reported as > 50 µM (inactive).
With `CC(=O)c1ccc(N2CCN(C(=O)c3ccc4c(c3)OCO4)CC2)cc1` the IC90 was > 50 µM (inactive).
`CCCNC(=O)N1CC[C@@H]2[C@@H](CO)N(C)c3ccc(-c4ccc(F)cc4)cc3[C@@H]21` was tested, and the IC90 was > 50 µM (inactive).
For `CC(=O)c1ccc(N2CCN(C(=O)c3ccccc3Cl)CC2)cc1`, the IC90 was > 50 µM (inactive).
`COc1cccc(NC(=O)N2CC[C@@H]3[C@@H](CO)N(C)c4ccc(-c5cccc(F)c5)cc4[C@@H]32)c1` was tested, and the IC90 was > 50 µM (inactive).
For `CNS(=O)(=O)c1ccc(N2CCN(C(=O)c3ccc4c(c3)OCO4)CC2)cc1`, the IC90 was > 50 µM (inactive).
With `CC(=O)c1ccc(NCCNC(=O)c2ccc3c(c2)OCO3)cc1` the IC90 was > 50 µM (inactive).
With `CN1c2ccc(-c3cccc(F)c3)cc2[C@H]2[C@H](CCN2C(=O)Cc2ccccc2)[C@H]1CO` the IC90 was > 50 µM (inactive).
With `CN1c2ccc(-c3cccc(F)c3)cc2[C@H]2[C@H](CCN2C(=O)c2ccc3c(c2)OCO3)[C@@H]1CO` the IC90 was > 50 µM (inactive).
For `CC(C)NC(=O)N1CC[C@@H]2[C@@H](CO)N(C)c3ccc(-c4ccc(F)cc4)cc3[C@@H]21`, the IC90 was > 50 µM (inactive).
For `CC(=O)c1ccc(N2CCN(C(=O)c3ccccc3F)CC2)cc1`, the IC90 was > 50 µM (inactive).
For `CN1c2ccc(-c3cccc(F)c3)cc2[C@@H]2[C@@H](CCN2C(=O)c2ccc3c(c2)OCO3)[C@H]1CO`, the IC90 was > 50 µM (inactive).
`COCC(=O)N1CC[C@@H]2[C@@H](CO)N(C)c3ccc(-c4cccc(F)c4)cc3[C@@H]21` was tested, and the IC90 was > 50 µM (inactive).
`CN1c2ccc(-c3cccc(F)c3)cc2[C@H]2[C@H](CCN2C(=O)CCCCCCC(=O)O)[C@H]1CO` was tested, and the IC90 was > 50 µM (inactive).
In the case of `CC(=O)c1ccc(N2CCN(C(=O)c3ccc4c(c3)OCO4)[C@H](C)C2)cc1`, the IC90 is reported as > 50 µM (inactive).
`CNC(=O)c1ccc(N2CCN(C(=O)c3ccc4c(c3)OCO4)CC2)cc1` was tested, and the IC90 was > 50 µM (inactive).
`CC(=O)c1ccc(N2CC3(CN(C(=O)c4ccc5c(c4)OCO5)C3)C2)cc1` was tested, and the IC90 was > 50 µM (inactive).
`CN1c2ccc(-c3ccc(F)cc3)cc2[C@H]2[C@H](CCN2C(=O)Nc2ccc(F)cc2)[C@H]1CO` was tested, and the IC90 was > 50 µM (inactive).
For `COC(=O)CCCCCCC(=O)N1CC[C@@H]2[C@@H](CO)N(C)c3ccc(-c4cccc(F)c4)cc3[C@@H]21`, the IC90 was > 50 µM (inactive).
With `CN1c2ccc(-c3ccc(F)cc3)cc2[C@H]2[C@H](CCN2C(=O)Nc2cc(F)ccc2F)[C@H]1CO` the IC90 was > 50 µM (inactive).
`COc1ccccc1NC(=O)N1CC[C@@H]2[C@@H](CO)N(C)c3ccc(-c4ccc(F)cc4)cc3[C@@H]21` was tested, and the IC90 was > 50 µM (inactive).
`CN1c2ccc(-c3cccc(F)c3)cc2[C@H]2[C@H](CCN2C(=O)CCCCCCN)[C@H]1CO` was tested, and the IC90 was > 50 µM (inactive).
